From ChEMBL document CHEMBL5528053, “Discovery of Novel Isoquinoline Analogues as Dual Tubulin Polymerization/V-ATPase Inhibitors with Immunogenic Cell Death Induction” (J Med Chem, 2024)
Active and inactive are the calls of the source. The calls are words filed in the database; no cut-off is given here.

Key:
[1] = tested on: PC-3; experiment: Inhibition of V-ATPase activity in human PC-3 cells at 400 nM measured after 24 hrs by colorimetric assay relative to control; type: cell-based
[2] = target: Tubulin; experiment: (§1) Inhibition of tubulin polymerization (unknown origin) measured every 60 secs for 60 mins by microplate reader based analysis; type: protein-complex assay, Homo sapiens
[3] = target: T1, Tubulin (Homo sapiens) (UniProt P68371+Q9H4B7+P0DPH7+P68366+Q13509+Q71U36+P04350+Q3ZCM7+P07437+P68363+Q9BQE3+Q6PEY2+Q13885+Q9BVA1+Q9BUF5); experiment: as §1; type: protein-complex assay; settings: dose 1.25-40 µM
[4] = Antitumor immunity against mouse RM1 cells homografted in C57BL/6 mouse model assessed as increase in tumor infiltrating CD3+CD8+T cells (CTLs) at 10 mg/kg, iv administered every two days for 14 days by flow cytometry analysis (reference value: 0.89%); type: functional; settings: time 14 day
[5] = tested on: PC-3; experiment: Induction of apoptosis in human PC-3 cells assessed as necrotic cells at 100 nM measured after 24 hrs by annexin V-FITC and PI staining based flow cytometry analysis (reference value: 6.01%); type: functional
[6] = tested on: PC-3; experiment: Induction of apoptosis in human PC-3 cells assessed as increase in p-bim-EL level at 50 to 200 nM incubated for 24 hrs by Western blot analysis; type: functional, cell-based; settings: dose 50-200 nM
[7] = Antitumor activity against mouse RM1 cells xenografted in immunocompetent […] mouse model assessed as tumor growth inhibition at 10 mg/kg, iv measured every two days for 14 days relative to control; type: functional; settings: RM1, 336 h, time 14 day, read-out: TGI
[8] = tested on: PC-3; experiment: Induction of apoptosis in human PC-3 cells assessed as early apoptotic cells at 200 nM measured after 24 hrs by annexin V-FITC and PI staining based flow cytometry analysis (reference value: 1.03%); type: functional
[9] = Antitumor immunity against mouse RM1 cells homografted in C57BL/6 mouse model assessed as increase in tumor infiltrating CD3+CD8+T cells (CTLs) at 5 mg/kg, iv administered every two days for 14 days by flow cytometry analysis (reference value: 0.89%); type: functional; settings: time 14 day
[10] = tested on: PC-3; experiment: Induction of apoptosis in human PC-3 cells assessed as late apoptotic cells at 200 nM measured after 24 hrs by annexin V-FITC and PI staining based flow cytometry analysis (reference value: 2.37%); type: functional
[11] = tested on: RM1; experiment: Antitumor immunity against mouse RM1 cells homografted in C57BL/6 mouse model assessed as increase in tumor infiltrating CD3+CD8+T cells (CTLs) in spleen at 5 to 10 mg/kg, iv administered every two days for 14 days by flow cytometry analysis; type: functional, organism-based; settings: dose 5-10 mg/kg, time 14.0 day
[12] = tested on: PC-3; experiment: Induction of apoptosis in human PC-3 cells assessed as viable cells at 100 nM measured after 24 hrs by annexin V-FITC and PI staining based flow cytometry analysis (reference value: 90.6%); type: functional; settings: read-out: Activity
[13] = tested on: PC-3; experiment: Induction of immunogenic cell death in human PC-3 cells assessed as effect on CRT expression at 50 to 200 nM; type: functional, cell-based; settings: dose 50-200 nM
[14] = target: T1, Tubulin (Homo sapiens); experiment: Disruption of microtubule network in human PC-3 cells at 50 to 200 nM incubated for 6 to 24 hrs by immunofluorescence staining based confocal microscopy analysis relative to control; type: cell-based; settings: dose 50-200 nM, time 6-24 hrs
[15] = Toxicity in ICR mouse assessed as effect on heart at 10 mg/kg, ip measured for 14 days by H and E staining based analysis; type: organism-based; settings: in vivo, 336 h, time 14 day
[16] = Anticancer activity against mouse RM1 cells assessed as increase in mean fluorescence intensity at 400 nM measured after 24 hrs by flow cytometry analysis (reference value: 7.40+/-3.96 ); type: functional
[17] = tested on: DU-145; experiment: Antiproliferative activity against human DU-145 cells assessed as inhibition of cell growth after 72 hrs by MTT assay; type: functional, cell-based; settings: DU-145, 72 h
[18] = tested on: RM1; experiment: Antitumor immunity against mouse RM1 cells homografted in C57BL/6 mouse model assessed as increase in activation of tumor infiltrating lymphocytes in spleen at 5 to 10 mg/kg, iv administered every two days for 14 days by flow cytometry analysis; type: functional, organism-based; settings: dose 5-10 mg/kg, time 14.0 day
[19] = Antitumor activity against mouse RM1 cells xenografted in immunocompetent […] mouse model assessed as tumor growth inhibition at 5 mg/kg, iv measured every two days for 14 days relative to control; type: functional; settings: RM1, 336 h, time 14 day, read-out: TGI
[20] = tested on: RM1; experiment: Anticancer activity against mouse RM1 cells assessed as increase in CRT expression at 400 nM measured after 24 hrs by flow cytometry analysis; type: functional, cell-based
[21] = Antitumor immunity against mouse RM1 cells homografted in C57BL/6 mouse model assessed as increase in tumor infiltrating lymphocytes at 10 mg/kg, iv administered every two days for 14 days by flow cytometry analysis (reference value: 5.26%); type: functional; settings: time 14 day
[22] = Antitumor immunity against mouse RM1 cells homografted in C57BL/6 mouse model assessed as increase in tumor infiltrating helper T lymphocytes at 10 mg/kg, iv administered every two days for 14 days by flow cytometry analysis (reference value: 6.59%); type: functional; settings: time 14 day

With `COc1cc(-c2nc(C(N)=O)cc3cc4c(cc23)OCCO4)cc(Br)c1OC` the inhibition [1] was 60%, the IC50 [2] was 6.33 µM and the inhibition [3] was “Dose-Dependent Effect”. The Activity [4] was 2.27%, the Activity [5] was 6.41% and the Activity [6] was “Active”. It also gave an inhibition in vivo at 10 mg/kg [7] of 70.2%, an Activity [8] of 22.7% and an Activity [9] of 1.59%. For the same compound, the Activity [10] was 19.4%, the Activity [11] was “Active” and the viability at 0.1 µM [12] was 61.7%. The Activity [13] was “Active”, the Activity [14] was “Active” and the Activity [15] was “Non-Toxic”. For the same compound, the Flu intensity [16] was 151.3, the IC50 [17] was 0.11 µM and the Activity [18] was “Active”. For the same compound, the inhibition in vivo at 5 mg/kg [19] was 54.6%, the Activity [20] was “Active” and the Activity [21] was 8.03%. The Activity [22] was 14.2%.
